Assay results from ChEMBL document CHEMBL5696442, “Discovery of type II inhibitors of TGFβ-activated kinase 1 (TAK1) and mitogen-activated protein kinase kinase kinase kinase 2 (MAP4K2)” (J Med Chem, 2015).
Active and inactive are the calls of the source. The calls are words filed in the database; no cut-off is given here.

What was measured:
[1] = target: Phosphatidylinositol 3-kinase catalytic subunit type 3 (Homo sapiens) (UniProt Q8NEB9); experiment: Inhibition of PIK3C3 ATP labeling site in human Huh-7 cells at 1 uM by KiNativ Profiling analysis relative to control; assay type: cell-based
Phosphatidylinositol 3-kinase catalytic subunit type 3 (Homo sapiens), sequence (Q8NEB9 whole entry): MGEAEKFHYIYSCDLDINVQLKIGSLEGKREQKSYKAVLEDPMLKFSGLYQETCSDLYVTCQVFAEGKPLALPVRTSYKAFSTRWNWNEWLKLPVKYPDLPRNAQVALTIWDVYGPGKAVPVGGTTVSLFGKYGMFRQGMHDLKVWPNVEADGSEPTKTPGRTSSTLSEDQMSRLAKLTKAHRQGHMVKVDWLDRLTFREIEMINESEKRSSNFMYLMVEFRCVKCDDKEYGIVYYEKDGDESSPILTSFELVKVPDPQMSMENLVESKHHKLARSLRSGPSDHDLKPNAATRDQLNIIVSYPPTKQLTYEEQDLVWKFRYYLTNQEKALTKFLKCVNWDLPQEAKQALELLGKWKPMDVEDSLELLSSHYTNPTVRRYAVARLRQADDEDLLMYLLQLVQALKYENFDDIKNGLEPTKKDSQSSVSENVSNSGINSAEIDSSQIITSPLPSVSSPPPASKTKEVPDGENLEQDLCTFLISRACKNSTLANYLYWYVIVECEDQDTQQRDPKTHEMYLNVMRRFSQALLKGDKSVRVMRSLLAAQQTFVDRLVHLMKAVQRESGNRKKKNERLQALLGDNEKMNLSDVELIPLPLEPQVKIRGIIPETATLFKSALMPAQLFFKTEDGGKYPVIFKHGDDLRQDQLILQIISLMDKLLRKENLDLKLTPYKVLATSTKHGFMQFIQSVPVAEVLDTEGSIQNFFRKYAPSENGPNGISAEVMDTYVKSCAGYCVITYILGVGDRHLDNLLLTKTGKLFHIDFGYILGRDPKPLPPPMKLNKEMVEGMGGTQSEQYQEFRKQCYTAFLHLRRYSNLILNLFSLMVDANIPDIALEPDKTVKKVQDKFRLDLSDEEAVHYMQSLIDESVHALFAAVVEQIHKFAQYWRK

[2] = target: T1, Phosphatidylinositol 5-phosphate 4-kinase type-2 gamma (Homo sapiens) (UniProt Q8TBX8); experiment: Inhibition of PIP4K2C ATP labeling site harbouring VKELPTLKDMDFLNK in human Huh-7 cell lysate at 1 uM by KiNativ Profiling analysis relative to control; assay type: subcellular
T1 sequence (whole entry): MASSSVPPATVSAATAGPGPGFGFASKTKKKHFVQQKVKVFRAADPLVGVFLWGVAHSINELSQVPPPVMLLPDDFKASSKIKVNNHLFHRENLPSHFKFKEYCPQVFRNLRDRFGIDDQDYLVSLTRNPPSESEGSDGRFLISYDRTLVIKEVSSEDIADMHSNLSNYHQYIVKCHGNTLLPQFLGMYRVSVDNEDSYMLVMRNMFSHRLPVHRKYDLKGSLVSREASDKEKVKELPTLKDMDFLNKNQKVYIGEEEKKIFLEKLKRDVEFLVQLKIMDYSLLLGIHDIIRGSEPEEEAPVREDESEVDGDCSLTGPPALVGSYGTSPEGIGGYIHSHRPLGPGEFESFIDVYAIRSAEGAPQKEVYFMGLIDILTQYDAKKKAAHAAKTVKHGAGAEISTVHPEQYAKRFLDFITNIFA

[3] = target: Calcium/calmodulin-dependent protein kinase type IV (Homo sapiens) (UniProt Q16566); experiment: Inhibition of CAMK4 (unknown origin) at 10 uM by Ambit Kinomescan binding assay
Calcium/calmodulin-dependent protein kinase type IV (Homo sapiens), sequence (Q16566 whole entry): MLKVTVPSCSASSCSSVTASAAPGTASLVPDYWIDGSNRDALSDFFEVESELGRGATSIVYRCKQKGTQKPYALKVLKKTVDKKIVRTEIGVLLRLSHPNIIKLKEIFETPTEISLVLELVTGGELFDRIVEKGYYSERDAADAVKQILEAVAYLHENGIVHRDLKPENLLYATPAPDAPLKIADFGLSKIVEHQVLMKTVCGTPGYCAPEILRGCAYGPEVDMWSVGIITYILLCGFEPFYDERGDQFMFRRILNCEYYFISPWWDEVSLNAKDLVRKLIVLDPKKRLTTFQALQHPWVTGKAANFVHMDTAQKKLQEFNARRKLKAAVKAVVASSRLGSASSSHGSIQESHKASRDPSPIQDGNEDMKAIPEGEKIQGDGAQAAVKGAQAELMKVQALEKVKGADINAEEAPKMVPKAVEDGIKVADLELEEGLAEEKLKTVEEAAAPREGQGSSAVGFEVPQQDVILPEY

[4] = target: T2, PAN2-PAN3 deadenylation complex subunit PAN3 (Homo sapiens) (UniProt Q58A45); experiment: Inhibition of PAN3 ATP labeling site in human A-375 cells at 0.05 uM by KiNativ Profiling analysis relative to control; assay type: cell-based
T2 sequence (whole entry): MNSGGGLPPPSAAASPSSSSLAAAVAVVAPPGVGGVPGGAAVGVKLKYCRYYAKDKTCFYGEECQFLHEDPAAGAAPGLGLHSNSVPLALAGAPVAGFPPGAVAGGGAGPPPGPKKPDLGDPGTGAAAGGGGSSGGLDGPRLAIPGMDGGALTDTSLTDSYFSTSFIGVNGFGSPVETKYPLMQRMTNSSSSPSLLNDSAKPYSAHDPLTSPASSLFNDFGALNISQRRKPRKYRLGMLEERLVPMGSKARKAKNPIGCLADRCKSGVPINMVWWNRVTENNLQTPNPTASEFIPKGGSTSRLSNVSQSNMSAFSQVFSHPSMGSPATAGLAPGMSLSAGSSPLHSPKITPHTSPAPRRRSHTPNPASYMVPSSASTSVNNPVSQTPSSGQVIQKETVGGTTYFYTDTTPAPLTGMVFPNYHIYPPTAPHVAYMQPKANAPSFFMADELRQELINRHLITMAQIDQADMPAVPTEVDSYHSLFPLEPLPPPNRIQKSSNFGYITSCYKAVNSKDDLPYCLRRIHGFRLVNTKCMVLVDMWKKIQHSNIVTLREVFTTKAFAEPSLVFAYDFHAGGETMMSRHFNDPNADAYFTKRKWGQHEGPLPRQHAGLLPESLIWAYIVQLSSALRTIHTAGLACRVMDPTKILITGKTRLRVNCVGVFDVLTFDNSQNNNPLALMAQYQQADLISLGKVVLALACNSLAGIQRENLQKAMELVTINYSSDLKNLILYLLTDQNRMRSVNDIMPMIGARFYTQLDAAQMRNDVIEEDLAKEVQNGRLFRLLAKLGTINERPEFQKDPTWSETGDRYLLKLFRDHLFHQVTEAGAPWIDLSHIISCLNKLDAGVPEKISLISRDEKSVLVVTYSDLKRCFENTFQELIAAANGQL

[5] = tested on: Epidermal growth factor receptor (Homo sapiens), P00533 [UNDEFINED MUTATION]; experiment: Inhibition of EGFR S752-I759del mutant (unknown origin) at 10 uM by Ambit Kinomescan binding assay relative to control
Epidermal growth factor receptor (Homo sapiens), P00533 [UNDEFINED MUTATION], sequence (P00533 whole entry, looked up, stated change not applied): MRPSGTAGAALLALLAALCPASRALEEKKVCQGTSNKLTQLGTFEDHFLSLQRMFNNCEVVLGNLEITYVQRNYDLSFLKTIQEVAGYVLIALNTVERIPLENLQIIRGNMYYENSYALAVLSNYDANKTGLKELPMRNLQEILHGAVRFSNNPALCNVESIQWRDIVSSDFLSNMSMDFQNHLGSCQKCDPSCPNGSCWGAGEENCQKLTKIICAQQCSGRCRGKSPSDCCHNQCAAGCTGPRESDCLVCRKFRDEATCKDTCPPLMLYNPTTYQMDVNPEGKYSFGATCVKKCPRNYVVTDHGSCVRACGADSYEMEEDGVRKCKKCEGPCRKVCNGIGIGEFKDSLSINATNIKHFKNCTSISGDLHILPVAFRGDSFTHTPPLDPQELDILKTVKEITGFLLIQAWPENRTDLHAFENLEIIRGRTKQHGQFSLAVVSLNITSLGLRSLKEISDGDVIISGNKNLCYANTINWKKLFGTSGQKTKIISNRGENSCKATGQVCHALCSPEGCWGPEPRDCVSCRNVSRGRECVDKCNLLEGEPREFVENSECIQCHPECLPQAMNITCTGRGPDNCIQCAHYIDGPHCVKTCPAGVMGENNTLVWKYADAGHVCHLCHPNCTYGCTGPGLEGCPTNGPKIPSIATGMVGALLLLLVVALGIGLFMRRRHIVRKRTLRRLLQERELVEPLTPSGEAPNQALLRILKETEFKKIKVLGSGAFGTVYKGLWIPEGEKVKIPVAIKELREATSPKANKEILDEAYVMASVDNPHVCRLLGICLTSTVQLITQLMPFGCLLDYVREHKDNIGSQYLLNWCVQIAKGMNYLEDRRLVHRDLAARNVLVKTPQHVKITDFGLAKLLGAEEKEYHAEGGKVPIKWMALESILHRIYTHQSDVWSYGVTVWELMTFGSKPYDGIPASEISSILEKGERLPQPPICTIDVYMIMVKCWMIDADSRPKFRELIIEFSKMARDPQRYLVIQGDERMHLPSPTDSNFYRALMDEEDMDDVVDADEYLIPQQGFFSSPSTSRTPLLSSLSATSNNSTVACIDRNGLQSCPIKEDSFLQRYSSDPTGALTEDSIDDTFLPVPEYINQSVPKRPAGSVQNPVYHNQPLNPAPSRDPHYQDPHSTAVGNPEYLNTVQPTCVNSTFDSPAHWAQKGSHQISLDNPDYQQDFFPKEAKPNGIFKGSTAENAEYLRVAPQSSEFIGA

[6] = target: T3, Scaffold protein ILK (Homo sapiens) (UniProt Q13418); experiment: Inhibition of ILK ACT labeling site in human Huh-7 cells at 10 uM by KiNativ Profiling analysis relative to control; assay type: cell-based
T3 sequence (whole entry): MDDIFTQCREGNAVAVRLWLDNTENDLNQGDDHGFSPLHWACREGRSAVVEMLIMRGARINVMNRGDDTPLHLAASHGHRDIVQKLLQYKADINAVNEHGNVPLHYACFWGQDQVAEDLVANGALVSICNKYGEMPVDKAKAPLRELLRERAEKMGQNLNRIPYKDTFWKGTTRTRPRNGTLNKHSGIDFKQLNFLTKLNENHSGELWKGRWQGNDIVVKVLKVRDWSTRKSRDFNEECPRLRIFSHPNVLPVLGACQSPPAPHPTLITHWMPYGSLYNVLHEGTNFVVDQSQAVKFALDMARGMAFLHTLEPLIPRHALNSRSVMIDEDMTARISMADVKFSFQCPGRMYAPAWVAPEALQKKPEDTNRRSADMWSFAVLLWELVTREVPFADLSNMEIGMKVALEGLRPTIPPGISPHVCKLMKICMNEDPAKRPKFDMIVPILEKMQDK

[7] = target: Mitogen-activated protein kinase 14 (Homo sapiens, UniProt Q16539); experiment: Inhibition of p38alpha K2 labeling site in human Huh-7 cells at 10 uM by KiNativ Profiling analysis relative to control; assay type: cell-based
Mitogen-activated protein kinase 14, sequence (Q16539 whole entry): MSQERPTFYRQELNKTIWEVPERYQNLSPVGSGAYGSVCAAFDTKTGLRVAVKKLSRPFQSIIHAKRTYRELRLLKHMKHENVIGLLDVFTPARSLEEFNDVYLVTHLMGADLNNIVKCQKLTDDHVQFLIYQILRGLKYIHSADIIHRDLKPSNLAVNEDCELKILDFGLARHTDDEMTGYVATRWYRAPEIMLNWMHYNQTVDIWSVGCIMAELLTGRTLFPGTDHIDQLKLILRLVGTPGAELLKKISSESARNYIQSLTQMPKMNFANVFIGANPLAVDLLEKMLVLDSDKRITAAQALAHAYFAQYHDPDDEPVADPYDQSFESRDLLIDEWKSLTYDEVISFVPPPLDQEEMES

[8] = target: Cyclin-dependent kinase 5 (Homo sapiens) (UniProt Q00535); experiment: Inhibition of CDK5 (unknown origin) at 10 uM by Ambit Kinomescan binding assay relative to control
Cyclin-dependent kinase 5 (Homo sapiens), sequence (Q00535 whole entry, looked up): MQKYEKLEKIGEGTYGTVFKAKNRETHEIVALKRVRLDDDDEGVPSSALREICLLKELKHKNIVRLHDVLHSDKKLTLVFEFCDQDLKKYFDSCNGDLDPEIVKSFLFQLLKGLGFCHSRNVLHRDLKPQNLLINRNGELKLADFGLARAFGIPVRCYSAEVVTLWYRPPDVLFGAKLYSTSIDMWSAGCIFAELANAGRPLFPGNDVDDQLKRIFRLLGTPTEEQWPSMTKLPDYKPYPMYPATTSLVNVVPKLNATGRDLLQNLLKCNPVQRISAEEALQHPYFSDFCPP

[9] = target: Mitogen-activated protein kinase 4 (Homo sapiens) (UniProt P31152); experiment: Inhibition of ERK4 (unknown origin) at 1 uM by Ambit Kinomescan binding assay relative to control
Mitogen-activated protein kinase 4 (Homo sapiens), sequence (P31152 whole entry): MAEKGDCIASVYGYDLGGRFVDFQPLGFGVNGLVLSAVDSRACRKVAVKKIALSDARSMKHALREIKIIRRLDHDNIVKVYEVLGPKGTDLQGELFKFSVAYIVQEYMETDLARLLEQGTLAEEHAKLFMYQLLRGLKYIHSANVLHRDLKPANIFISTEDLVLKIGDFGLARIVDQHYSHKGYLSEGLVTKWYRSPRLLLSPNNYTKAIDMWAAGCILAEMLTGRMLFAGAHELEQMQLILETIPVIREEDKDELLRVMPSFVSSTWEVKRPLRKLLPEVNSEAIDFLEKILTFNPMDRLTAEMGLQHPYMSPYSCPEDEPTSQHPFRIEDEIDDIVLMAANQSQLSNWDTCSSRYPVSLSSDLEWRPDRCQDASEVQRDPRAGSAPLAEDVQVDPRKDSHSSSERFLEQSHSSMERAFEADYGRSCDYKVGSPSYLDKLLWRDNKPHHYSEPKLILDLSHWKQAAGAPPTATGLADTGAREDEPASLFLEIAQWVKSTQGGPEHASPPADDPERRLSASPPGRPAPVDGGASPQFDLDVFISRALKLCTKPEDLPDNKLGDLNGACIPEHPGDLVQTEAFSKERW

[10] = target: T4, EKC/KEOPS complex subunit TP53RK (Homo sapiens) (UniProt Q96S44); experiment: Inhibition of PRPK ATP Loop labeling site in human A-375 cells at 0.05 uM by KiNativ Profiling analysis relative to control; assay type: cell-based
T4 sequence (whole entry): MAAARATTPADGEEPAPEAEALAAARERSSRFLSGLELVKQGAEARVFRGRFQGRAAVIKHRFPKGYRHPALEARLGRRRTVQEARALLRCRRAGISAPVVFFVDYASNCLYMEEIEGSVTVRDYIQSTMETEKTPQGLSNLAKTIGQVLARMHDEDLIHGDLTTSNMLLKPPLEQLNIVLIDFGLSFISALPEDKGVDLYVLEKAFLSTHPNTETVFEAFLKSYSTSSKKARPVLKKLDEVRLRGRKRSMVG

[11] = target: RAF proto-oncogene serine/threonine-protein kinase (Homo sapiens, UniProt P04049); experiment: Inhibition of RAF1 (unknown origin) at 1 uM by Ambit Kinomescan binding assay relative to control
RAF proto-oncogene serine/threonine-protein kinase, sequence (P04049 whole entry): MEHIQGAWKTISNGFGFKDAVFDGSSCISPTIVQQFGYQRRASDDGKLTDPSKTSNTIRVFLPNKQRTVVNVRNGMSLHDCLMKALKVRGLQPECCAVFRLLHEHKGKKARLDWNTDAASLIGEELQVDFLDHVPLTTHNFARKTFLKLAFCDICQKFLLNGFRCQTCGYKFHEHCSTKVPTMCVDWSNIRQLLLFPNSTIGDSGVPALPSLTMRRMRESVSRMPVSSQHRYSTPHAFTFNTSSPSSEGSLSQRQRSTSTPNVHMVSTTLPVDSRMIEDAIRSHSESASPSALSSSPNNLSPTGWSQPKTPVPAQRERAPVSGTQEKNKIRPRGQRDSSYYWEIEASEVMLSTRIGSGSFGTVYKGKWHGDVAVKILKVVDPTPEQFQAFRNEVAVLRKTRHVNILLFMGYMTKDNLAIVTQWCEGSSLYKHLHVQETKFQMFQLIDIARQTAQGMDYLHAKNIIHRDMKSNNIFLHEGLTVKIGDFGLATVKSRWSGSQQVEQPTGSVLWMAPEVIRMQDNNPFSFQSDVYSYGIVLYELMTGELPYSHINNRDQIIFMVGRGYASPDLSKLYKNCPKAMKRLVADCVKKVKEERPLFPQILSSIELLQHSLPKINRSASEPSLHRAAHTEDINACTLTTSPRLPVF

[12] = target: Receptor-interacting serine/threonine-protein kinase 2 (Homo sapiens) (UniProt O43353); experiment: Inhibition of RIPK2 (unknown origin) at 1 uM by Ambit Kinomescan binding assay relative to control
Receptor-interacting serine/threonine-protein kinase 2 (Homo sapiens), sequence (O43353 whole entry): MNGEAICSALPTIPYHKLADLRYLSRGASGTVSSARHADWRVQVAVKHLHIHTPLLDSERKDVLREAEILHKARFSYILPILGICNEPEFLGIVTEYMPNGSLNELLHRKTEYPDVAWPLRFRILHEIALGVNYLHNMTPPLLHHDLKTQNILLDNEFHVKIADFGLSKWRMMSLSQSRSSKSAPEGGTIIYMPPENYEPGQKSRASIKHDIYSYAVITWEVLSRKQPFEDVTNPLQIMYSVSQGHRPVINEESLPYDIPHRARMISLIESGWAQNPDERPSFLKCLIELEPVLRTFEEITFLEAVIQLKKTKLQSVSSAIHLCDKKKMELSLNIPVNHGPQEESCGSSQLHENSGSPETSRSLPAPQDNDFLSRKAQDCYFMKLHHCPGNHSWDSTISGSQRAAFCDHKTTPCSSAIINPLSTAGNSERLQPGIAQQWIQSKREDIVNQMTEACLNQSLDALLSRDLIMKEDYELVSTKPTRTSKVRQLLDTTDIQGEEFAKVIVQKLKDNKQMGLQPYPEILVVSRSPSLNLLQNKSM

CNc1cc(Oc2cc(C(=O)Nc3cc(N4CCN(C)CC4)cc(C(F)(F)F)c3)ccc2C)ncn1
inhibition [1]: 8.9%
inhibition [2]: 11.6%

CCN1CCN(Cc2ccc(NC(=O)c3ccc(C)c(Oc4ccnc5[nH]ccc45)c3)cc2C(F)(F)F)CC1
inhibition [3]: inactive
inhibition [4]: 7%
inhibition [5]: 4.6%
inhibition [6]: -1.1%
inhibition [7]: 6.8%
inhibition [8]: 19%

CCN1CCN(Cc2ccc(NC(=O)c3ccc(C)c(/C=C/c4cnc5[nH]ccc5c4OC)c3)cc2C(F)(F)F)CC1
inhibition [9]: 77%
inhibition [10]: -1.5%
inhibition [11]: 7.8%
inhibition [12]: 4.5%
